Test results: US7815912B2, “Method of controlled ovarian hyperstimulation and pharmaceutical kit for use in such method” (Ares Trading, S.A., priority 2002, dated 2010)
Non-standard residues stand in square brackets, D forms with d. Residues, ends and D or L forms follow the SMILES beside them. d(hArg(Et2)) = CCN=C(NCC)NCCCC[C@@H](N)C(=O)O; hArg(Et2) = CCN=C(NCC)NCCCC[C@H](N)C(=O)O; dPhe(4-Cl) = N[C@H](Cc1ccc(Cl)cc1)C(=O)O; d2Nal = N[C@H](Cc1ccc2ccccc2c1)C(=O)O; dCit = NC(=O)NCCC[C@@H](N)C(=O)O; d3Pal = N[C@H](Cc1cccnc1)C(=O)O

Assays:
Type in all cases: in vivo, human
[1] = system: women undergoing COH and subsequent IVF and ET; assay: safety and tolerability in the clinical trial of COH with subsequent IVF and ET; conditions: daily subcutaneous 2.0 mg cetrorelix without recLH
Text: (§1) Although this treatment is suitable for all types of IVF patients (e.g. within the age range 18 to 45 years, with or without displaying polycystic ovarian syndrome and with or without a regular cycle), the following selection criteria are set forth in the investigation: healthy female partners of infertile couples; age at the time of screening between 20 and 39 years; a regular menstrual cycle, and willing to give a written informed consent. However, no special precautions concerning body weight or body mass index are taken.
(§2) Prior to the first administration of recombinant FSH a blood sample is taken for hormone analysis (estradiol and LH) and a standard urinary hCG assay is performed to exclude pregnancy. Recombinant FSH treatment is started at day 2 or 3 of menses by a daily subcutaneous injection until the day of hCG administration. During the first 5 days of recombinant FSH treatment the daily dose is fixed to 150 IU. […]
(§3) A subcutaneous injection with urinary hCG (10,000 IU) is administered, when at least three follicles exceed a diameter of 17 mm as measured by ultrasound scan and subsequently oocyte retrieval is performed typically 30-36 hours later.

[2] = system: premature endogenous LH-surge; assay: open-label controlled clinical trial: premature endogenous LH-surge prevention in COH; conditions: daily subcutaneous 2.0 mg cetrorelix without recLH
Text: as §1, §2, §3

IVF-patients = assay: implantation and pregnancy rates after IVF and embryo transfer following COH
Text: as §1
Prior to the first administration of recombinant FSH a blood sample is taken for hormone analysis (estradiol and LH) and a standard urinary hCG assay is performed to exclude pregnancy. Recombinant FSH treatment is started at day 2 or 3 of menses by a daily subcutaneous injection until the day of hCG administration. During the first 5 days of recombinant FSH treatment the daily dose is fixed to 150 IU. Starting at day 6, blood samples for hormone analysis are taken once every two days prior to drug administration and ultrasonographic monitoring of follicle growth is performed to adjust, if necessary, the daily injectable doses of recombinant FSH.
as §3
Oocytes are retrieved from the human females that have undergone COH as set forth in example 1. The oocytes are subsequently fertilized in vitro and two days later no more than two embryos are transferred to the uterus of the patient. […] Lower implantation and pregnancy rates are obtained in IVF-patients, in whom premature LH surges are prevented by a daily dose of 0.25 mg cetrorelix.

[3] = system: premature endogenous LH-surge; assay: Examples 1 and 2 repeated using ganirelix instead of cetrorelix; conditions: 2.0 mg ganirelix instead of 2.0 mg cetrorelix
Text: as §1, §2
A subcutaneous injection with urinary hCG (10,000 IU) is administered, when at least three follicles exceed a diameter of 17 mm as measured by ultrasound scan and subsequently oocyte retrieval is performed typically 30-36 hours later. […]

[4] = daily 2.0 mg cetrorelix without co-administered recLH

| SMILES | adverse effects [1] | tolerability [1] | efficacy in preventing a premature LH-rise ([2]; compared with 0.25 mg) | effectiveness in preventing a premature LH-rise in patients with bodyweight of more than 75 kg ([2]; IVF patients undergoing COH, bodyweight more than 75 kg) | implantation rates (rank among three treatment groups) (IVF-patients; daily 0.25 mg cetrorelix) | pregnancy rates (rank among three treatment groups) (IVF-patients; daily 0.25 mg cetrorelix) | implantation rates (rank among three treatment groups) (IVF-patients; [4]) | pregnancy rates (rank among three treatment groups) (IVF-patients; [4]) | results (LH-rise prevention, tolerability, implantation and pregnancy rates) compared with examples 1 and 2 [3] |
| --- | --- | --- | --- | --- | --- | --- | --- | --- | --- |
| CC(=O)N[C@H](Cc1ccc2ccccc2c1)C(=O)N[C@H](Cc1ccc(Cl)cc1)C(=O)N[C@H](Cc1cccnc1)C(=O)N[C@@H](CO)C(=O)N[C@@H](Cc1ccc(O)cc1)C(=O)N[C@H](CCCNC(N)=O)C(=O)N[C@@H](CC(C)C)C(=O)N[C@@H](CCCNC(=N)N)C(=O)N1CCC[C@H]1C(=O)N[C@H](C)C(N)=O [cetrorelix] (Ac-[d2Nal][dPhe(4-Cl)][d3Pal]SY[dCit]LRP[dA]-NH2) | no apparent adverse effects | well-tolerated | more efficacious | especially apparent | Lower | Lower | lowest | lowest |  |
| CCN=C(NCC)NCCCC[C@H](NC(=O)[C@H](CC(C)C)NC(=O)[C@@H](CCCCNC(=NCC)NCC)NC(=O)[C@H](Cc1ccc(O)cc1)NC(=O)[C@H](CO)NC(=O)[C@@H](Cc1cccnc1)NC(=O)[C@@H](Cc1ccc(Cl)cc1)NC(=O)[C@@H](Cc1ccc2ccccc2c1)NC(C)=O)C(=O)N1CCC[C@H]1C(=O)N[C@H](C)C(N)=O [ganirelix] (Ac-[d2Nal][dPhe(4-Cl)][d3Pal]SY[d(hArg(Et2))]L[hArg(Et2)]P[dA]-NH2) |  |  |  |  |  |  |  |  | very similar |
